The structures appear in SMILES notation. Inconclusive results and toxic doses are left out.

For the test, the system named is P388 leukemia ip, CD2F1 mice, survival T/C. In words: NCI In Vivo Anticancer Drug Screen. Data for tumor model P388 Leukemia (intraperitoneal) in CD2F1 (CDF1) mice. Particulars: endpoint: median survival time, higher = longer survival. The method in brief: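 Mice carrying the transplanted tumor received test compound or vehicle. Survival was recorded in each group, and the value is the treated-group measurement divided by that of the vehicle-treated control group.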

Setting [1] is: dose: 60.0 mg/kg/injection, schedule: Q01DX005 (ip), vehicle: Klucel (hydroxypropylcellulose) (HPC).
[2] abbreviates: dose: 120.0 mg/kg/injection, schedule: Q01DX005 (ip), vehicle: Klucel (hydroxypropylcellulose) (HPC).
The mark [3] stands for this setting: dose: 240.0 mg/kg/injection, schedule: Q01DX005 (ip), vehicle: Klucel (hydroxypropylcellulose) (HPC).
Setting [4] is: dose: 50.0 mg/kg/injection, schedule: Q01DX009 (ip), vehicle: saline with Tween-80.
The mark [5] stands for this setting: dose: 200.0 mg/kg/injection, schedule: Q01DX009 (ip), vehicle: saline with Tween-80.
[6] abbreviates: dose: 50.0 mg/kg/injection, schedule: Q01DX009 (ip), vehicle: saline.
[7] abbreviates: dose: 100.0 mg/kg/injection, schedule: Q01DX009 (ip), vehicle: saline.

In the case of `O/N=C(\C[P+](c1ccccc1)(c1ccccc1)c1ccccc1)c1ccccc1`, the T/C runs as follows: (dose: 12.5 mg/kg/injection, schedule: Q01DX009 (ip), vehicle: Klucel (hydroxypropylcellulose) (HPC)) 100 % of control; (dose: 25.0 mg/kg/injection, schedule: Q01DX009 (ip), vehicle: Klucel (hydroxypropylcellulose) (HPC)) 99 % of control; (dose: 50.0 mg/kg/injection, schedule: Q01DX009 (ip), vehicle: Klucel (hydroxypropylcellulose) (HPC)) 102 % of control.

Regarding `CCc1c(C(=O)OC)c(C(=O)OC)c(-c2ccc(C)cc2)n1CCn1c(CC)c(C(=O)OC)c(C(=O)OC)c1-c1ccc(C)cc1`, the T/C under setting [1] was 96 % of control, the T/C under setting [2] was 101 % of control and the T/C under setting [3] is 92 % of control.

On to `COC(=O)N1CCCc2cc3c(cc(OC)c(OC)c3c3[nH]c4ccccc4c23)CC1`, for which the T/C (dose: 50.0 mg/kg/injection, schedule: Q01DX005 (ip), vehicle: Klucel + Tween-80) was 100 % of control; the T/C (dose: 100.0 mg/kg/injection, schedule: Q01DX005 (ip), vehicle: Klucel + Tween-80) is 95 % of control; the T/C (dose: 200.0 mg/kg/injection, schedule: Q01DX005 (ip), vehicle: Klucel + Tween-80) is 91 % of control.

Regarding `CCOC(=O)N1C=CC2(C=C1)CCCCCC2`, the T/C runs as follows: (dose: 37.5 mg/kg/injection, schedule: Q04DX003 (ip), vehicle: Klucel (hydroxypropylcellulose) (HPC)) 101 % of control; (dose: 75.0 mg/kg/injection, schedule: Q04DX003 (ip), vehicle: Klucel (hydroxypropylcellulose) (HPC)) 98 % of control.

On to `OC1CCCCCC2CC12` (configuration not stated) (tested in a mixture with another compound), for which the T/C was 102 % of control (dose: 50.0 mg/kg/injection, schedule: Q01DX009 (ip), vehicle: other); 103 % of control (dose: 100.0 mg/kg/injection, schedule: Q01DX009 (ip), vehicle: other); 96 % of control (dose: 200.0 mg/kg/injection, schedule: Q01DX009 (ip), vehicle: other).

As for `CC(=O)Sc1ccccc1C(=O)NC1CCCCC1`, the T/C is 114 % of control under setting [4]; 117 % of control (dose: 100.0 mg/kg/injection, schedule: Q01DX009 (ip), vehicle: saline with Tween-80); 114 % of control under setting [5].

As to `COc1ccccc1NC(=O)CC(=O)c1ccc([N+](=O)[O-])cc1`, the T/C is 100 % of control (dose: 6.25 mg/kg/injection, schedule: Q04DX003 (ip), vehicle: saline sonified); 100 % of control (dose: 12.5 mg/kg/injection, schedule: Q04DX003 (ip), vehicle: saline sonified); 100 % of control (dose: 25.0 mg/kg/injection, schedule: Q04DX003 (ip), vehicle: saline sonified).

Regarding `CCCCCC1(CCCCCCCC(O)CC(=O)OCC)OCCO1` (configuration not stated), the T/C (dose: 100.0 mg/kg/injection, schedule: Q01DX001 (ip), vehicle: Klucel (hydroxypropylcellulose) (HPC)) was 100 % of control; the T/C (dose: 200.0 mg/kg/injection, schedule: Q01DX001 (ip), vehicle: Klucel (hydroxypropylcellulose) (HPC)) was 108 % of control; the T/C (dose: 400.0 mg/kg/injection, schedule: Q01DX001 (ip), vehicle: Klucel (hydroxypropylcellulose) (HPC)) is 100 % of control.

As to `Cn1cnc([N+](=O)[O-])c1C(=O)O`, the T/C is 107 % of control under setting [6] and 89 % of control under setting [7].

On to `COc1cc2c(O)c(c1)CCCC1=CC(=O)C=C(CCC2)C1=O`, for which the T/C (dose: 100.0 mg/kg/injection, schedule: Q01DX001 (ip), vehicle: saline with Tween-80) is 99 % of control; the T/C (dose: 200.0 mg/kg/injection, schedule: Q01DX001 (ip), vehicle: saline with Tween-80) is 101 % of control; the T/C (dose: 400.0 mg/kg/injection, schedule: Q01DX001 (ip), vehicle: saline with Tween-80) is 94 % of control.

Regarding `C=C1C(=O)OC2/C=C(\C)CC/C=C(\C=O)C(OC(=O)C(C)C)C(OC(=O)C(C)(C)O)C12` (configuration not stated), the T/C reads like this: (dose: 5.0 mg/kg/injection, schedule: Q01DX009 (ip), vehicle: other) 116 % of control; (dose: 10.0 mg/kg/injection, schedule: Q01DX009 (ip), vehicle: other) 112 % of control; (dose: 20.0 mg/kg/injection, schedule: Q01DX009 (ip), vehicle: other) 112 % of control.

With `Nc1ccc(N(CCCl)CCN(CCCl)c2ccc(N)cc2)cc1`, the T/C runs as follows: (dose: 0.8 mg/kg/injection, schedule: Q01DX009 (ip), vehicle: saline sonified) 176 % of control; (dose: 1.2 mg/kg/injection, schedule: Q01DX009 (ip), vehicle: saline sonified) 209 % of control; (dose: 1.25 mg/kg/injection, schedule: Q01DX009 (ip), vehicle: saline) 177 % of control; (dose: 2.5 mg/kg/injection, schedule: Q01DX009 (ip), vehicle: saline) 122 % of control; (dose: 5.0 mg/kg/injection, schedule: Q01DX009 (ip), vehicle: saline) 90 % of control; (dose: 5.0 mg/kg/injection, schedule: Q04DX003 (ip), vehicle: saline with Tween-80) 118 % of control.

`Cc1ncc(CO)c(/C=N/NC(=O)c2ccncc2)c1O`: the T/C under setting [1] is 102 % of control, the T/C under setting [2] is 102 % of control and the T/C under setting [3] was 101 % of control.

For `[Cu+2].[NH-]C(CCC(N)=O)C(=O)O.[NH-]C(CCC(N)=O)C(=O)O` (configuration not stated), the T/C (dose: 6.25 mg/kg/injection, schedule: Q04DX003 (ip), vehicle: saline) was 100 % of control and the T/C (dose: 12.5 mg/kg/injection, schedule: Q04DX003 (ip), vehicle: saline) was 90 % of control.

For `CC(C)C(C/C(=N\Nc1ccc([N+](=O)[O-])cc1[N+](=O)[O-])C1CC1)C(=O)O` (configuration not stated), the T/C reads like this: (dose: 25.0 mg/kg/injection, schedule: Q01DX005 (ip), vehicle: saline with Tween-80) 105 % of control; (dose: 50.0 mg/kg/injection, schedule: Q01DX005 (ip), vehicle: saline with Tween-80) 96 % of control; (dose: 100.0 mg/kg/injection, schedule: Q01DX005 (ip), vehicle: saline with Tween-80) 89 % of control.

On to `FS(F)(F)(F)(F)c1cccc(NC(=S)SCc2ccc3c(c2)OCO3)c1`, for which the T/C (dose: 50.0 mg/kg/injection, schedule: Q01DX009 (ip), vehicle: suspension in saline) is 102 % of control; the T/C (dose: 100.0 mg/kg/injection, schedule: Q01DX009 (ip), vehicle: suspension in saline) is 106 % of control; the T/C (dose: 200.0 mg/kg/injection, schedule: Q01DX009 (ip), vehicle: suspension in saline) was 102 % of control.

Regarding `NC(=O)CC(N)CO` (configuration not stated), the T/C runs as follows: under setting [6], 100 % of control; under setting [7], 100 % of control; (dose: 200.0 mg/kg/injection, schedule: Q01DX009 (ip), vehicle: saline) 103 % of control; (dose: 400.0 mg/kg/injection, schedule: Q01DX009 (ip), vehicle: saline) 101 % of control.

Regarding `CC(C)(C)C1C=Nn2c(=O)n(-c3ccccc3)c(=O)n21` (configuration not stated), the T/C was 91 % of control (dose: 25.0 mg/kg/injection, schedule: Q04DX003 (ip), vehicle: other); 94 % of control (dose: 100.0 mg/kg/injection, schedule: Q04DX003 (ip), vehicle: other); 98 % of control (dose: 200.0 mg/kg/injection, schedule: Q04DX003 (ip), vehicle: other); 100 % of control (dose: 400.0 mg/kg/injection, schedule: Q04DX003 (ip), vehicle: other).

In the case of `CCN(CC)C(=O)CCc1ccc(Cl)cc1`, the T/C under setting [1] is 104 % of control, the T/C under setting [2] is 95 % of control and the T/C under setting [3] is 102 % of control.

`Cc1cnc2ccccc2c1/C=C/c1ccc(N(C)C)cc1`: the T/C under setting [4] is 124 % of control; the T/C under setting [5] is 153 % of control; the T/C (dose: 400.0 mg/kg/injection, schedule: Q01DX009 (ip), vehicle: saline with Tween-80) is 120 % of control.

The values are drawn from PubChem BioAssay AID330 (DTP/NCI, 2004).
